In the supplement of paper PMC11451515:

Tested on: NOMO1
Experiment: cell viability relative to DMSO control; higher = less cytotoxic
Settings: 48 h
In short: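 Viability was expressed as a per-plate percentage of DMSO wells, with cell-free wells as background. Leukemia cells (NOMO1 or SEM at 500 cells/well, P12-Ichikawa at 1000 cells/well) were adapted for at least four passages in each medium and seeded in 1536-well plates (5 μl). Library compounds in DMSO were pin-dosed over an 11-point threefold series from 47 μM to 0.79 nM, and CellTiter-Glo One luminescence was read after 48 h at 37°C.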

[1] = HPLM + 10% dialyzed FBS, 0.000781 µM
[2] = HPLM + 10% dialyzed FBS, 0.00234 µM
[3] = HPLM + 10% dialyzed FBS, 0.00702 µM
[4] = HPLM + 10% dialyzed FBS, 0.0211 µM
[5] = HPLM + 10% dialyzed FBS, 0.0632 µM
[6] = HPLM + 10% dialyzed FBS, 0.19 µM
[7] = HPLM + 10% dialyzed FBS, 0.569 µM
[8] = HPLM + 10% dialyzed FBS, 1.71 µM
[9] = HPLM + 10% dialyzed FBS, 5.12 µM
[10] = HPLM + 10% dialyzed FBS, 15.4 µM
[11] = HPLM + 10% dialyzed FBS, 46.1 µM
[12] = RPMI 5 mM glucose + 10% FBS, 0.000781 µM
[13] = RPMI 5 mM glucose + 10% FBS, 0.00234 µM
[14] = RPMI 5 mM glucose + 10% FBS, 0.00702 µM
[15] = RPMI 5 mM glucose + 10% FBS, 0.0211 µM
[16] = RPMI 5 mM glucose + 10% FBS, 0.0632 µM
[17] = RPMI 5 mM glucose + 10% FBS, 0.19 µM
[18] = RPMI 5 mM glucose + 10% FBS, 0.569 µM
[19] = RPMI 5 mM glucose + 10% FBS, 1.71 µM
[20] = RPMI 5 mM glucose + 10% FBS, 5.12 µM
[21] = RPMI 5 mM glucose + 10% FBS, 15.4 µM
[22] = RPMI 5 mM glucose + 10% FBS, 46.1 µM
[23] = RPMI 5 mM glucose + 10% dialyzed FBS, 0.000781 µM
[24] = RPMI 5 mM glucose + 10% dialyzed FBS, 0.00234 µM
[25] = RPMI 5 mM glucose + 10% dialyzed FBS, 0.00702 µM
[26] = RPMI 5 mM glucose + 10% dialyzed FBS, 0.0211 µM
[27] = RPMI 5 mM glucose + 10% dialyzed FBS, 0.0632 µM
[28] = RPMI 5 mM glucose + 10% dialyzed FBS, 0.19 µM
[29] = RPMI 5 mM glucose + 10% dialyzed FBS, 0.569 µM
[30] = RPMI 5 mM glucose + 10% dialyzed FBS, 1.71 µM
[31] = RPMI 5 mM glucose + 10% dialyzed FBS, 5.12 µM
[32] = RPMI 5 mM glucose + 10% dialyzed FBS, 15.4 µM
[33] = RPMI 5 mM glucose + 10% dialyzed FBS, 46.1 µM

Cc1ncc([N+](=O)[O-])n1CC(C)O (centres undefined)
cell viability [1]: 96.1% | cell viability [2]: 100% | cell viability [3]: 117% | cell viability [4]: 114% | cell viability [5]: 119% | cell viability [6]: 110% | cell viability [7]: 111% | cell viability [8]: 116% | cell viability [9]: 117% | cell viability [10]: 120% | cell viability [11]: 108% | cell viability [12]: 100% | cell viability [13]: 123% | cell viability [14]: 106% | cell viability [15]: 106% | cell viability [16]: 113% | cell viability [17]: 118% | cell viability [18]: 132% | cell viability [19]: 117% | cell viability [20]: 117% | cell viability [21]: 105% | cell viability [22]: 113% | cell viability [23]: 101% | cell viability [24]: 107% | cell viability [25]: 95.3% | cell viability [26]: 96.4% | cell viability [27]: 113% | cell viability [28]: 116% | cell viability [29]: 110% | cell viability [30]: 110% | cell viability [31]: 115% | cell viability [32]: 115% | cell viability [33]: 101%

OC[C@H]1O[C@@H]2[C@@H](OC\3=N\C(=N)\C=C/[N@@]23)[C@@H]1O
cell viability [1]: 103% | cell viability [2]: 129% | cell viability [3]: 125% | cell viability [4]: 114% | cell viability [5]: 130% | cell viability [6]: 129% | cell viability [7]: 109% | cell viability [8]: 62.6% | cell viability [9]: 30.4% | cell viability [10]: 19.8% | cell viability [11]: 6.81% | cell viability [12]: 119% | cell viability [13]: 122% | cell viability [14]: 112% | cell viability [15]: 111% | cell viability [16]: 119% | cell viability [17]: 125% | cell viability [18]: 130% | cell viability [19]: 103% | cell viability [20]: 33.7% | cell viability [21]: 22% | cell viability [22]: 8.44% | cell viability [23]: 116% | cell viability [24]: 122% | cell viability [25]: 120% | cell viability [26]: 106% | cell viability [27]: 118% | cell viability [28]: 125% | cell viability [29]: 90.5% | cell viability [30]: 67.1% | cell viability [31]: 23.3% | cell viability [32]: 16.8% | cell viability [33]: 9.9%

C1CCN2C[C@H]3C[C@H](\C=C/4CCCN[C@@H]34)[C@H]2C1
cell viability [1]: 96.5% | cell viability [2]: 113% | cell viability [3]: 113% | cell viability [4]: 133% | cell viability [5]: 96.1% | cell viability [6]: 122% | cell viability [7]: 137% | cell viability [8]: 107% | cell viability [9]: 115% | cell viability [10]: 99.5% | cell viability [11]: 92.8% | cell viability [12]: 105% | cell viability [13]: 105% | cell viability [14]: 108% | cell viability [15]: 104% | cell viability [16]: 98.7% | cell viability [17]: 108% | cell viability [18]: 104% | cell viability [19]: 105% | cell viability [20]: 108% | cell viability [21]: 63.7% | cell viability [22]: 55% | cell viability [23]: 107% | cell viability [24]: 108% | cell viability [25]: 114% | cell viability [26]: 121% | cell viability [27]: 108% | cell viability [28]: 108% | cell viability [29]: 120% | cell viability [30]: 111% | cell viability [31]: 120% | cell viability [32]: 78.6% | cell viability [33]: 64.2%
